Three molecules from ChEMBL document CHEMBL1126220, “Synthesis and antifolate properties of 5,10-ethano-5,10-dideazaaminopterin” (J Med Chem, 1992) can be followed below.

For orientation: IC50 means the point on the concentration scale where inhibition reaches its midpoint. Higher therefore signals weaker potency. The term Ki denotes the equilibrium dissociation constant of an inhibitor or competing ligand from its target. The low end stands for tighter binding, the high end for weaker binding.

Experiment [1] can be described thus: Influx with respect to the MTX. The format is functional.
The subject of experiment [2] is L1210. The experiment in a line: Concentration required to inhibit 50% growth of L1210 cells in culture. The format is functional, cell-based. The settings on record: Mus musculus.
Experiment [3] has as its target T1, Dihydrofolate reductase (Mus musculus, UniProt P00375).
T1 sequence (P00375 whole entry): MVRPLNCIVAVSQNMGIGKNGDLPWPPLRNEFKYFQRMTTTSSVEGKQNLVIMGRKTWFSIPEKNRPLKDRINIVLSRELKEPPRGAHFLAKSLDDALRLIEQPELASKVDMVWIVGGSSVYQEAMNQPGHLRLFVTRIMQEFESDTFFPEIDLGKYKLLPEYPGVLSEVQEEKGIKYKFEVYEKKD
The experiment can be described thus: Inhibition of the dihydrofolate reductase enzyme(DHFR) derived from L1210 murine leukemia cells. Format: cell-based.

Regarding `CC(Cc1cnc2nc(N)nc(N)c2c1)c1ccc(C(=O)NC(CCC(=O)O)C(=O)O)cc1` (stereo not given), the Relative influx in experiment [1] stood at 1.43.
On the same count and under the same terms, for `CCC(Cc1cnc2nc(N)nc(N)c2c1)c1ccc(C(=O)NC(CCC(=O)O)C(=O)O)cc1` (stereo not given) the value was 1.32.
`Nc1nc(N)c2c3c(cnc2n1)CC(c1ccc(C(=O)NC(CCC(=O)O)C(=O)O)cc1)CC3` (stereo not given): the Relative influx in experiment [1] was determined as 3.3. The IC50 in experiment [2] worked out at 4.5 nM. In experiment [3], this molecule yielded a Ki of 0.017 nM.
